Tested on: MV-4-11 cells
Assay: Gene expression microarray analysis (Affymetrix PrimeView) and GSEA
Format: cell-based, human
Set-up: RFU PODN (11730768_x_at) / Fold change /veh PODN (11730768_x_at) / RFU LINC00158 (11744669_a_at) / Fold change /veh LINC00158 (11744669_a_at) / RFU DUSP10 (11751237_a_at) / Fold change /veh DUSP10 (11751237_a_at) / RFU ID3 (11757404_x_at) / Fold change /veh ID3 (11757404_x_at) / RFU PLEKHG5 (11737974_s_at) / Fold change /veh PLEKHG5 (11737974_s_at) / RFU LRRC4B (11730491_at) / Fold change /veh LRRC4B (11730491_at) / RFU GIMAP4 (11747438_a_at) / Fold change /veh GIMAP4 (11747438_a_at) / RFU KRT8 (11758183_x_at) / Fold change /veh KRT8 (11758183_x_at) / RFU CNN1 (11734310_a_at) / Fold change /veh CNN1 (11734310_a_at) / RFU VPS37D (11726825_at) / Fold change /veh VPS37D (11726825_at) / RFU C10orf10 (11716522_x_at) / Fold change /veh C10orf10 (11716522_x_at) / RFU KIR2DL2 /// KIR2DL4 /// KIR2DL5A /// KIR2DL5B /// KIR2DS1 /// KIR2DS2 /// KIR2DS3 /// KIR2DS4 /// KIR3DL3 /// KIR3DL3 /// KIR3DS1 (11738374_at) / Fold change /veh KIR2DL2 /// KIR2DL4 /// KIR2DL5A /// KIR2DL5B /// KIR2DS1 /// KIR2DS2 /// KIR2DS3 /// KIR2DS4 /// KIR3DL3 /// KIR3DL3 /// KIR3DS1 (11738374_at) / RFU C1QL1 (11718748_at) / Fold change /veh C1QL1 (11718748_at) / RFU TMPRSS4 (11747572_a_at) / Fold change /veh TMPRSS4 (11747572_a_at) / RFU HAMP (11756126_x_at) / Fold change /veh HAMP (11756126_x_at) / RFU RNFT2 (11725882_a_at) / Fold change /veh RNFT2 (11725882_a_at) / RFU NR4A2 (11747474_a_at) / Fold change /veh NR4A2 (11747474_a_at) / RFU ABCC12 (11746883_a_at) / Fold change /veh ABCC12 (11746883_a_at) / RFU TMEM136 (11760407_x_at) / Fold change /veh TMEM136 (11760407_x_at) / RFU CLDN22 /// WWC2 (11732394_at) / Fold change /veh CLDN22 /// WWC2 (11732394_at) / RFU HLA-DPB1 (11760878_x_at) / Fold change /veh HLA-DPB1 (11760878_x_at) / RFU SPINT1 (11716480_a_at) / Fold change /veh SPINT1 (11716480_a_at) / RFU GAP43 (11754022_s_at) / Fold change /veh GAP43 (11754022_s_at) / RFU A4GNT (11735810_at) / Fold change /veh A4GNT (11735810_at) / RFU PRB3 (11715151_x_at) / Fold change /veh PRB3 (11715151_x_at) / RFU TUBB4B (11761932_at) / Fold change /veh TUBB4B (11761932_at) / RFU CAPN14 (11732068_a_at) / Fold change /veh CAPN14 (11732068_a_at) / RFU TMCC2 (11721928_a_at) / Fold change /veh TMCC2 (11721928_a_at) / RFU IRGQ (11745062_a_at) / Fold change /veh IRGQ (11745062_a_at) / RFU FAM174B (11720279_a_at) / Fold change /veh FAM174B (11720279_a_at) / RFU TMPRSS4 (11748680_a_at) / Fold change /veh TMPRSS4 (11748680_a_at) / RFU FAM212B (11763350_a_at) / Fold change /veh FAM212B (11763350_a_at) / RFU PLEKHG5 (11743358_a_at) / Fold change /veh PLEKHG5 (11743358_a_at) / RFU ZSCAN30 (11745921_a_at) / Fold change /veh ZSCAN30 (11745921_a_at) / RFU CMKLR1 (11741424_a_at) / Fold change /veh CMKLR1 (11741424_a_at) / RFU LOC101060620 /// MAPK8IP1 (11723275_at) / Fold change /veh LOC101060620 /// MAPK8IP1 (11723275_at) / RFU SPTSSB (11747773_x_at) / Fold change /veh SPTSSB (11747773_x_at) / RFU PRSS12 (11739890_at) / Fold change /veh PRSS12 (11739890_at) / RFU BIN1 (11741810_x_at) / Fold change /veh BIN1 (11741810_x_at) / RFU WNT11 (11732464_a_at) / Fold change /veh WNT11 (11732464_a_at) / RFU C10orf10 (11716521_a_at) / Fold change /veh C10orf10 (11716521_a_at) / RFU C5orf56 (11738089_at) / Fold change /veh C5orf56 (11738089_at) / RFU CYB561 (11721691_x_at) / Fold change /veh CYB561 (11721691_x_at) / RFU ANKRD19P (11752326_a_at) / Fold change /veh ANKRD19P (11752326_a_at) / RFU OR2T12 /// OR2T33 /// OR2T8 (11738714_s_at) / Fold change /veh OR2T12 /// OR2T33 /// OR2T8 (11738714_s_at) / RFU VCAN (11748164_a_at) / Fold change /veh VCAN (11748164_a_at) / RFU JSRP1 (11732532_at) / Fold change /veh JSRP1 (11732532_at) / RFU KRTAP10-11 (11738290_x_at) / Fold change /veh KRTAP10-11 (11738290_x_at) / RFU MYO3A (11730013_a_at) / Fold change /veh MYO3A (11730013_a_at) / RFU EBF3 (11725865_a_at) / Fold change /veh EBF3 (11725865_a_at) / RFU CAMK2N1 (11719241_x_at) / Fold change /veh CAMK2N1 (11719241_x_at) / RFU C5orf56 (11738088_a_at) / Fold change /veh C5orf56 (11738088_a_at) / RFU OLFML3 (11715873_a_at) / Fold change /veh OLFML3 (11715873_a_at) / RFU LOC100653217 /// NTM (11731650_a_at) / Fold change /veh LOC100653217 /// NTM (11731650_a_at) / RFU MAPK11 (11762145_a_at) / Fold change /veh MAPK11 (11762145_a_at) / RFU FIZ1 (11724087_x_at) / Fold change /veh FIZ1 (11724087_x_at) / RFU OASL (11726364_x_at) / Fold change /veh OASL (11726364_x_at) / RFU SOX15 (11748057_x_at) / Fold change /veh SOX15 (11748057_x_at) / RFU CD79A (11719716_a_at) / Fold change /veh CD79A (11719716_a_at) / RFU HIST1H1D (11736915_at) / Fold change /veh HIST1H1D (11736915_at) / RFU CASKIN2 (11723855_a_at) / Fold change /veh CASKIN2 (11723855_a_at) / RFU LOC730098 (11760151_x_at) / Fold change /veh LOC730098 (11760151_x_at) / RFU OR4N2 (11742367_at) / Fold change /veh OR4N2 (11742367_at) / RFU PRRT2 (11749266_a_at) / Fold change /veh PRRT2 (11749266_a_at) / RFU SNX32 (11753110_a_at) / Fold change /veh SNX32 (11753110_a_at) / RFU CDHR5 (11726645_a_at) / Fold change /veh CDHR5 (11726645_a_at) / RFU RCAN1 (11760418_a_at) / Fold change /veh RCAN1 (11760418_a_at) / RFU FAM167A (11723789_a_at) / Fold change /veh FAM167A (11723789_a_at) / RFU FAM26E (11764081_at) / Fold change /veh FAM26E (11764081_at) / RFU ISYNA1 (11749810_s_at) / Fold change /veh ISYNA1 (11749810_s_at) / RFU ACY1 (11761880_at) / Fold change /veh ACY1 (11761880_at) / RFU 11764098_at / Fold change /veh 11764098_at / RFU SAMD14 (11745864_x_at) / Fold change /veh SAMD14 (11745864_x_at) / RFU NPB (11741838_a_at) / Fold change /veh NPB (11741838_a_at) / RFU TMPRSS6 (11731388_a_at) / Fold change /veh TMPRSS6 (11731388_a_at) / RFU KRTAP10-2 (11738614_at) / Fold change /veh KRTAP10-2 (11738614_at) / RFU ARHGAP8 /// PRR5-ARHGAP8 (11727945_x_at) / Fold change /veh ARHGAP8 /// PRR5-ARHGAP8 (11727945_x_at) / RFU KRTAP5-7 /// NADSYN1 (11734609_at) / Fold change /veh KRTAP5-7 /// NADSYN1 (11734609_at) / RFU RASL12 (11751679_a_at) / Fold change /veh RASL12 (11751679_a_at) / RFU CDKN2B (11736163_a_at) / Fold change /veh CDKN2B (11736163_a_at) / RFU PRF1 (11729649_at) / Fold change /veh PRF1 (11729649_at) / RFU, ZNF638 /// ZNF638-IT1 / Fold change vs veh, ZNF638 /// ZNF638-IT1 / RFU, PANK3 / Fold change vs veh, PANK3 / RFU, SH3YL1 / Fold change vs veh, SH3YL1 / RFU, ZEB2 / Fold change vs veh, ZEB2 / RFU, NRIP1 / Fold change vs veh, NRIP1 / RFU, PTTG1IP / Fold change vs veh, PTTG1IP / RFU, CAPN2 / Fold change vs veh, CAPN2 / RFU, MED14 / Fold change vs veh, MED14 / RFU, SNORA58 / Fold change vs veh, SNORA58 / RFU, C1orf63 / Fold change vs veh, C1orf63 / RFU, LRRFIP1 / Fold change vs veh, LRRFIP1 / RFU, NDUFAF7 / Fold change vs veh, NDUFAF7 / RFU, SLC12A2 / Fold change vs veh, SLC12A2 / RFU, IBTK / Fold change vs veh, IBTK / RFU, ESF1 / Fold change vs veh, ESF1 / Fold change vs veh, TMEM50B / RFU, TAOK1 / Fold change vs veh, TAOK1 / RFU, ACBD3 / Fold change vs veh, ACBD3 / RFU, TMA16 / Fold change vs veh, TMA16 / RFU, RWDD3 / Fold change vs veh, RWDD3 / RFU, BCAT1 / Fold change vs veh, BCAT1 / RFU, EDEM3 / Fold change vs veh, EDEM3 / RFU, TMEM33 / Fold change vs veh, TMEM33 / RFU, WDR75 / Fold change vs veh, WDR75 / RFU, AHCTF1 / Fold change vs veh, AHCTF1 / RFU, TFRC / Fold change vs veh, TFRC / RFU, ZDHHC17 / Fold change vs veh, ZDHHC17 / RFU, NOM1 / Fold change vs veh, NOM1 / RFU, ARL8B / Fold change vs veh, ARL8B / RFU, ZBTB11 / Fold change vs veh, ZBTB11 / RFU, TAMM41 / Fold change vs veh, TAMM41 / RFU, KIAA1704 /// LOC100996395 / Fold change vs veh, KIAA1704 /// LOC100996395 / RFU, ING1 / Fold change vs veh, ING1 / RFU, TRMT61B / Fold change vs veh, TRMT61B / RFU, FUBP3 / Fold change vs veh, FUBP3 / RFU, TP53 / Fold change vs veh, TP53 / RFU, TNKS2 / Fold change vs veh, TNKS2 / RFU, ZFP14 / Fold change vs veh, ZFP14 / RFU, ACTR2 / Fold change vs veh, ACTR2 / RFU, PPP3R1 / Fold change vs veh, PPP3R1 / RFU, PIK3R1 / Fold change vs veh, PIK3R1 / RFU, HNRNPA1 / Fold change vs veh, HNRNPA1 / RFU, RNF170 / Fold change vs veh, RNF170 / RFU, ZNF28 / Fold change vs veh, ZNF28 / RFU, RNGTT / Fold change vs veh, RNGTT / RFU, OGT / Fold change vs veh, OGT / RFU, BRD1 / Fold change vs veh, BRD1 / RFU, MARS / Fold change vs veh, MARS / RFU, ZNF655 / Fold change vs veh, ZNF655 / RFU, FAHD1 / Fold change vs veh, FAHD1 / RFU, BDP1 / Fold change vs veh, BDP1 / RFU, LRRCC1 / Fold change vs veh, LRRCC1 / RFU, ARID1A / Fold change vs veh, ARID1A / RFU, ZNF146 / Fold change vs veh, ZNF146 / RFU, ZNF330 / Fold change vs veh, ZNF330 / RFU, GPN3 / Fold change vs veh, GPN3 / RFU, C9orf123 / Fold change vs veh, C9orf123 / RFU, N4BP2L2 / Fold change vs veh, N4BP2L2 / RFU, ARFIP1 / Fold change vs veh, ARFIP1 / RFU, FAM179B / Fold change vs veh, FAM179B / RFU, BCL10 / Fold change vs veh, BCL10 / RFU, UHRF1BP1L / Fold change vs veh, UHRF1BP1L / RFU, BET1 / Fold change vs veh, BET1 / RFU, CNOT2 / Fold change vs veh, CNOT2 / RFU, ZNF268 / Fold change vs veh, ZNF268 / Fold change vs veh, ZNF507 / RFU, DGCR2 / Fold change vs veh, DGCR2 / RFU, WDSUB1 / Fold change vs veh, WDSUB1 / Fold change vs veh, HSP90B1 /// MIR3652 / RFU, ADSS / Fold change vs veh, ADSS / RFU, GK / Fold change vs veh, GK / RFU, ZNF148 / Fold change vs veh, ZNF148 / RFU, TAF9 / Fold change vs veh, TAF9 / RFU, SLC1A5 / Fold change vs veh, SLC1A5 / RFU, SLMO2 / Fold change vs veh, SLMO2 / RFU, ABCC4 / Fold change vs veh, ABCC4 / RFU, LOC101060439 /// RAP1B / Fold change vs veh, LOC101060439 /// RAP1B / RFU, RFX7 / Fold change vs veh, RFX7 / RFU, GTPBP10 / Fold change vs veh, GTPBP10 / RFU, CNEP1R1 / Fold change vs veh, CNEP1R1 / RFU, BIVM-ERCC5 /// ERCC5 / Fold change vs veh, BIVM-ERCC5 /// ERCC5 / RFU, ILF3 / Fold change vs veh, ILF3 / RFU 11762660_at / Fold change /veh 11762660_at / RFU VCAN (11757783_s_at) / Fold change /veh VCAN (11757783_s_at) / RFU DDX43 (11728927_at) / Fold change /veh DDX43 (11728927_at) / RFU KRT8 (11758188_x_at) / Fold change /veh KRT8 (11758188_x_at) / RFU NKD1 (11759106_at) / Fold change /veh NKD1 (11759106_at) / RFU SRD5A1 (11742802_a_at) / Fold change /veh SRD5A1 (11742802_a_at) / RFU TPSAB1 /// TPSB2 (11721975_s_at) / Fold change /veh TPSAB1 /// TPSB2 (11721975_s_at) / RFU GSTM3 (11746129_a_at) / Fold change /veh GSTM3 (11746129_a_at) / RFU IL23R (11737362_x_at) / Fold change /veh IL23R (11737362_x_at) / RFU TMEM51 (11727254_a_at) / Fold change /veh TMEM51 (11727254_a_at) / RFU PIWIL2 (11732686_x_at) / Fold change /veh PIWIL2 (11732686_x_at) / RFU ORM1 (11744905_x_at) / Fold change /veh ORM1 (11744905_x_at) / RFU CCDC152 (11743942_at) / Fold change /veh CCDC152 (11743942_at) / RFU ECM1 (11717891_a_at) / Fold change /veh ECM1 (11717891_a_at) / RFU IL23R (11748794_a_at) / Fold change /veh IL23R (11748794_a_at) / RFU TNFAIP8L3 (11732012_x_at) / Fold change /veh TNFAIP8L3 (11732012_x_at) / RFU MBOAT4 (11741988_at) / Fold change /veh MBOAT4 (11741988_at) / RFU 11764193_at / Fold change /veh 11764193_at / RFU TMEM53 (11763286_at) / Fold change /veh TMEM53 (11763286_at) / RFU MAGEB2 (11727129_at) / Fold change /veh MAGEB2 (11727129_at) / RFU TMEM200A (11744735_a_at) / Fold change /veh TMEM200A (11744735_a_at) / RFU CCDC152 (11751479_a_at) / Fold change /veh CCDC152 (11751479_a_at) / RFU FAM211A (11726209_a_at) / Fold change /veh FAM211A (11726209_a_at) / RFU RGS16 (11746705_a_at) / Fold change /veh RGS16 (11746705_a_at) / RFU VCAN (11755009_s_at) / Fold change /veh VCAN (11755009_s_at) / RFU RHOB (11743442_s_at) / Fold change /veh RHOB (11743442_s_at) / RFU RGS16 (11720943_a_at) / Fold change /veh RGS16 (11720943_a_at) / RFU RGS16 (11720944_at) / Fold change /veh RGS16 (11720944_at) / RFU, VPS4B / Fold change vs veh, VPS4B / RFU, CREB1 / Fold change vs veh, CREB1 / RFU, DNAJC13 / Fold change vs veh, DNAJC13 / RFU, GNAQ / Fold change vs veh, GNAQ / RFU, CDK5R1 / Fold change vs veh, CDK5R1 / RFU, ZRANB3 / Fold change vs veh, ZRANB3 / RFU, CUL4A / Fold change vs veh, CUL4A / RFU, CCNY / Fold change vs veh, CCNY / RFU, UFL1 / Fold change vs veh, UFL1 / RFU, COG3 / Fold change vs veh, COG3 / RFU, DIAPH2 / Fold change vs veh, DIAPH2 / RFU, SKA2 / Fold change vs veh, SKA2 / RFU, AFF3 / Fold change vs veh, AFF3 / RFU, LMF1 / Fold change vs veh, LMF1 / RFU, IPO11 / Fold change vs veh, IPO11 / RFU, DFFB / Fold change vs veh, DFFB / RFU, FOXP1 / Fold change vs veh, FOXP1 / RFU, CARD8 / Fold change vs veh, CARD8 / RFU, STRN3 / Fold change vs veh, STRN3 / RFU, ADK / Fold change vs veh, ADK / RFU, RASSF2 / Fold change vs veh, RASSF2 / RFU, WIPF1 / Fold change vs veh, WIPF1 / RFU, LARP1B / Fold change vs veh, LARP1B / RFU, RASA1 / Fold change vs veh, RASA1 / RFU, RB1 / Fold change vs veh, RB1 / RFU, PPFIA1 / Fold change vs veh, PPFIA1 / RFU, MAT2A / Fold change vs veh, MAT2A / RFU, CCT5 / Fold change vs veh, CCT5 / RFU, WDR92 / Fold change vs veh, WDR92 / RFU, CUX1 / Fold change vs veh, CUX1 / RFU, TTC7A / Fold change vs veh, TTC7A / RFU, TMEM135 / Fold change vs veh, TMEM135 / RFU, DEPTOR / Fold change vs veh, DEPTOR / RFU, CPM / Fold change vs veh, CPM / RFU, DNAJB6 / Fold change vs veh, DNAJB6 / RFU, CACNA2D3 / Fold change vs veh, CACNA2D3 / RFU, DTX4 / Fold change vs veh, DTX4 / RFU, TFCP2 / Fold change vs veh, TFCP2 / RFU, GMCL1 /// GMCL1P1 / Fold change vs veh, GMCL1 /// GMCL1P1 / RFU, AEBP2 / Fold change vs veh, AEBP2 / RFU, SNHG1 /// SNORD22 /// SNORD25 /// SNORD26 /// SNORD27 /// SNORD28 /// SNORD29 /// SNORD31 / Fold change vs veh, SNHG1 /// SNORD22 /// SNORD25 /// SNORD26 /// SNORD27 /// SNORD28 /// SNORD29 /// SNORD31 / Fold change (Aza/veh), C12orf56 (ProbeSet 11735607_a_at) / Fold change (ACY-1035/veh), C12orf56 (ProbeSet 11735607_a_at) / Fold change (Aza/veh), FGFR1OP (ProbeSet 11751329_s_at) / Fold change (ACY-1035/veh), FGFR1OP (ProbeSet 11751329_s_at) / Fold change (Aza/veh), VPS36 (ProbeSet 11739960_a_at) / Fold change (ACY-1035/veh), VPS36 (ProbeSet 11739960_a_at) / RFU SYPL1 (11715823_x_at) / Fold change /veh SYPL1 (11715823_x_at) / RFU IGFBP7 (11715501_s_at) / Fold change /veh IGFBP7 (11715501_s_at) / RFU REEP3 (11722064_at) / Fold change /veh REEP3 (11722064_at) / RFU IGLL1 (11728026_x_at) / Fold change /veh IGLL1 (11728026_x_at): dose or concentration left out as unconfirmed
Conditions: ProbeSet 11743286_at; LIST D

Nc1ncn([C@@H]2O[C@H](CO)[C@@H](O)[C@H]2O)c(=O)n1 [azacitidine]
RFU, DTX4: 164.39 RFU

— article PMC5218480 (PLoS ONE, 2017)
